These results are taken from patent US20240246946A1, “MODULATORS OF TREX1” (Constellation Pharmaceuticals, Inc., priority 2021, published 2024).

The target of one test is T1, full length human TREX1 (Homo sapiens, UniProt Q9NSU2).
T1 construct: N-terminally His-Tev tagged full length human TREX1; made in house; host or cells: E. coli
T1 sequence (Q9NSU2 1-314): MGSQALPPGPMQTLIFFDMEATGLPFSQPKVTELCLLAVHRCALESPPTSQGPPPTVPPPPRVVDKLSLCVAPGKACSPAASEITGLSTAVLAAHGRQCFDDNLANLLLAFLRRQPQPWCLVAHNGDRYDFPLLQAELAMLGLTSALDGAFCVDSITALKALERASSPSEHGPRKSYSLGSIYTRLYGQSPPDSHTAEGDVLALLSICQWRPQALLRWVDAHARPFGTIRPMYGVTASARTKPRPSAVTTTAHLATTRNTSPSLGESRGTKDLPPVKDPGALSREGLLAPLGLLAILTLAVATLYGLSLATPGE
Kind of test: hTREX1 Biochemical Assay (fluorescence, dsDNA substrate degradation). The settings on record: biochemical, read-out: hTREX1 IC50. In a few lines: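 Cleavage of 60 nM TEX615/quencher-labelled dsDNA in pH 7.4 Tris buffer with 5 mM MgCl2, 1.0% DMSO, run 18 hours at 25° C, EDTA-quenched; fluorescence read-out.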

The target of test [1] is T2, human TREX2 (residues M44-A279) (Homo sapiens, UniProt Q9BQ50).
T2 construct: human TREX2 (residues M44-A279, expressed in E. coli); made in house; host or cells: E. coli
T2 sequence (Q9BQ50 44-279 isoform Q9BQ50-1): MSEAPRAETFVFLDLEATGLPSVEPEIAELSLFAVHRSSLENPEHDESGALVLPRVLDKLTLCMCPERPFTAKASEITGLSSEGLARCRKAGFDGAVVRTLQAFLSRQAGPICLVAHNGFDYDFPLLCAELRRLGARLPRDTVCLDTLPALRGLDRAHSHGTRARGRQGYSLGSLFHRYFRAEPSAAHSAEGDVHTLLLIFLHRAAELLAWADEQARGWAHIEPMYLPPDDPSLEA
Kind of test: hTREX2 Biochemical Assay (fluorescence, dsDNA substrate degradation). The settings on record: biochemical selectivity for hTREX1 vs hTREX2. In a few lines: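 N-His-Tev E. coli enzyme (50 pM) pre-incubated with compound 4 h at 25 °C, then 60 nM TEX615/quencher dsDNA added; 18 h at 25 °C, pH 7.4 Tris buffer with 5 mM MgCl2, 1.0% DMSO. EDTA-quenched; fluorescence 570 ex/615 em from liberated fluorophore, 10-point dose-response.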

A further test deals with T3, full length mouse TREX1 (Mus musculus, UniProt Q91XB0).
T3 construct: N-terminally His-Tev tagged full length mouse TREX1; made in house; host or cells: E. coli
T3 sequence (Q91XB0 1-314): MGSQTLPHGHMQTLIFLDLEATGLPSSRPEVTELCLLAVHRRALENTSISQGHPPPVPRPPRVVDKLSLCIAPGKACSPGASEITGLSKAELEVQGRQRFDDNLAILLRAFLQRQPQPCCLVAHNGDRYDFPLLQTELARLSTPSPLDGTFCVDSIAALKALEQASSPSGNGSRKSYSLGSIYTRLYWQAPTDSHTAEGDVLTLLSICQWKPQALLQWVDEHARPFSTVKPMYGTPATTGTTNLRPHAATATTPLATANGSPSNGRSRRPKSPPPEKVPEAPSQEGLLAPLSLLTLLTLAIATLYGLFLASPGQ
The test can be described thus: mTREX1 Biochemical Assay (fluorescence, dsDNA substrate degradation). The settings on record: biochemical, read-out: mTREX1 IC50. In a few lines: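 Reaction run 18 h at 25° C. with 60 nM TEX615/quencher-labelled dsDNA and 6 pM mouse TREX1 in Tris buffer (pH 7.4, 5 mM MgCl2, 1.0% DMSO), enzyme having sat 4 h with compound across 10 concentrations. EDTA quench; substrate degradation measured as fluorescence increase.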

Usually IC50 stands for the concentration at which inhibition is half-maximal. With `Cc1nc(C)c(C(c2ccccc2C#N)C(C)c2nc(C(=O)Nc3cnoc3)c(O)c(=O)n2C)nc1C` (single isomer, unassigned) [Example 122 D1E1], the half-maximal inhibitory concentration (IC50) on full length human TREX1 and on full length mouse TREX1 was < 1 nM throughout. Moreover, in test [1], the “hTREX1 vs hTREX2 selectivity” value is “C (C = >50 fold selective for hTREX1)”.
Turning to `CCn1cc(C(c2ccccc2C#N)C(C)c2nc(C(=O)Nc3cnoc3)c(O)c(=O)n2C)cn1` (single isomer, unassigned) [Example 13 D1E1], the concentration for half-maximal inhibition (IC50) at full length human TREX1 and on full length mouse TREX1 was < 1 nM each time. Besides, the “hTREX1 vs hTREX2 selectivity” value in test [1] was “C (C = >50 fold selective for hTREX1)”.
On to `Cc1cnc(C(c2cc(F)ccc2C#N)C(C)c2nc(C(=O)Nc3cnoc3)c(O)c(=O)n2C)cn1` (single isomer, unassigned) [Example 115 D1E2], for which the IC50 was < 1 nM at full length human TREX1 and 1 to 10 nM at full length mouse TREX1. The “hTREX1 vs hTREX2 selectivity” value in test [1] is on record as “B (B = 25 to 50-fold selective for hTREX1)”.
On to `CC(c1nc(C(=O)Nc2cnoc2)c(O)c(=O)n1C)C(c1cnn(C(C)C)c1)c1ccccc1C#N` (single isomer, unassigned) [Example 105 D1E2], for which the half-inhibitory concentration (IC50) on full length human TREX1 was < 1 nM; on full length mouse TREX1, 1 to 10 nM. Moreover, the “hTREX1 vs hTREX2 selectivity” value in test [1] is on record as “B (B = 25 to 50-fold selective for hTREX1)”.
For the molecule `CCn1cc(C(c2ccc(F)cc2C#N)C(C)c2nc(C(=O)Nc3cnoc3)c(O)c(=O)n2C)cn1` (single isomer, unassigned) [Example 16 D1E1], the half-inhibitory concentration (IC50) at full length human TREX1 and at full length mouse TREX1 was < 1 nM in each case. Further, the “hTREX1 vs hTREX2 selectivity” value in test [1] was “C (C = >50 fold selective for hTREX1)”.
Take `CCn1cc(C(c2cc(F)ccc2C#N)C(C)c2nc(C(=O)Nc3cnoc3)c(O)c(=O)n2C)cn1` (single isomer, unassigned) [Example 17 D1E2]: the IC50 at full length human TREX1 and on full length mouse TREX1 was < 1 nM throughout.
Turning to `Cc1ncc(C(c2ccccc2Cl)C(C)c2nc(C(=O)Nc3cnoc3)c(O)c(=O)n2C)nc1C` (single isomer, unassigned) [Example 125 D1E2], the IC50 at full length human TREX1 is < 1 nM; on full length mouse TREX1, 1 to 10 nM. In test [1], the “hTREX1 vs hTREX2 selectivity” value is reported as “B (B = 25 to 50-fold selective for hTREX1)”.
Consider `CCn1c(C(C)C(c2cnn(C)c2)c2ccccc2C#N)nc(C(=O)Nc2cnoc2)c(O)c1=O` (single isomer, unassigned) [Example 149 D1E2], for which the 50% inhibitory concentration (IC50) was < 1 nM on full length human TREX1 and 1 to 10 nM on full length mouse TREX1. Also, the “hTREX1 vs hTREX2 selectivity” value in test [1] is recorded as “C (C = >50 fold selective for hTREX1)”.
For `C[C@H](c1nc(C(=O)Nc2cnoc2)c(O)c(=O)n1C)[C@@H](c1cc(F)ccc1C#N)c1cn(C)nc1C#N` [Example 59 D1E2], in that order: < 1 nM, < 1 nM and “C (C = >50 fold selective for hTREX1)”.
The like results for `Cc1nn(C)cc1C(c1cc(F)ccc1C#N)C(C)c1nc(C(=O)Nc2cnoc2)c(O)c(=O)n1C` (single isomer, unassigned) [Example 57 D1E2] were, in that order, < 1 nM, 1 to 10 nM and “C (C = >50 fold selective for hTREX1)”.
For `CC(c1nc(C(=O)Nc2cnoc2)c(O)c(=O)n1C)C(c1cnn(C)c1)c1ccccc1C#N` (single isomer, unassigned) [Example 2 D1E1], in that order: < 1 nM, 1 to 10 nM and “C (C = >50 fold selective for hTREX1)”.
For `CC(c1nc(C(=O)Nc2cnoc2)c(O)c(=O)n1C)C(c1cnn(C)c1)c1cc(Cl)ccc1C#N` (single isomer, unassigned) [Example 26 D1E2], the half-maximal inhibitory concentration (IC50) on full length human TREX1 was < 1 nM; at full length mouse TREX1, 1 to 10 nM.
For the molecule `CC(c1nc(C(=O)Nc2cnoc2)c(O)c(=O)n1C)C(c1cnn(C(F)F)c1)c1ccccc1C#N` (single isomer, unassigned) [Example 38 D1E1], the IC50 on full length human TREX1 and on full length mouse TREX1 was < 1 nM throughout.
Consider `Cc1ncc(C(c2cc(F)ccc2C#N)C(C)c2nc(C(=O)Nc3cnoc3)c(O)c(=O)n2C)nc1C` (single isomer, unassigned) [Example 124 D1E2], for which the half-inhibitory concentration (IC50) is < 1 nM at full length human TREX1 and 1 to 10 nM at full length mouse TREX1. The “hTREX1 vs hTREX2 selectivity” value in test [1] is listed as “B (B = 25 to 50-fold selective for hTREX1)”.
For `CC(c1nc(C(=O)Nc2cnoc2)c(O)c(=O)n1C)C(c1cnn(C)c1)c1ccccc1Cl` (single isomer, unassigned) [Example 77 D1E1], in that order: < 1 nM, 1 to 10 nM and “C (C = >50 fold selective for hTREX1)”.
For the molecule `Cc1cncc(C(c2ccccc2C#N)C(C)c2nc(C(=O)Nc3cnoc3)c(O)c(=O)n2C)n1` (single isomer, unassigned) [Example 53 D1E2], the IC50 at full length human TREX1 is < 1 nM; at full length mouse TREX1, 1 to 10 nM. For the same molecule, in test [1], the “hTREX1 vs hTREX2 selectivity” value is listed as “C (C = >50 fold selective for hTREX1)”.
Consider `CC(c1nc(C(=O)Nc2cnoc2)c(O)c(=O)n1C)C(c1ccccc1C#N)c1cn(C)nc1C#N` (single isomer, unassigned) [Example 10 D1E1], for which the concentration for half-maximal inhibition (IC50) at full length human TREX1 and on full length mouse TREX1 was < 1 nM throughout. In test [1], the “hTREX1 vs hTREX2 selectivity” value is recorded as “C (C = >50 fold selective for hTREX1)”.
As to `Cc1cc(C(c2cc(F)ccc2C#N)C(C)c2nc(C(=O)Nc3cnoc3)c(O)c(=O)n2C)n(C)n1` (single isomer, unassigned) [Example 111 D1E2], the half-maximal inhibitory concentration (IC50) at full length human TREX1 is < 1 nM; at full length mouse TREX1, 1 to 10 nM. Also, the “hTREX1 vs hTREX2 selectivity” value in test [1] is listed as “B (B = 25 to 50-fold selective for hTREX1)”.
For the molecule `CC(c1nc(C(=O)Nc2cnoc2)c(O)c(=O)n1C)C(c1cnn(CC(F)(F)F)c1)c1ccccc1C#N` (single isomer, unassigned) [Example 22 D1E1], the IC50 at full length human TREX1 is < 1 nM; on full length mouse TREX1, 1 to 10 nM.
Regarding `CC(c1nc(C(=O)Nc2cnoc2)c(O)c(=O)n1C)C(c1ccccc1C#N)c1cn(C)nc1F` (single isomer, unassigned) [Example 91 D1E1], the half-maximal inhibitory concentration (IC50) on full length human TREX1 and at full length mouse TREX1 was < 1 nM in each case. For the same molecule, the “hTREX1 vs hTREX2 selectivity” value in test [1] is recorded as “B (B = 25 to 50-fold selective for hTREX1)”.
As to `CC(c1nc(C(=O)Nc2cnoc2)c(O)c(=O)n1C)C(c1cnn(CC2CC2)c1)c1ccccc1C#N` (single isomer, unassigned) [Example 23 D1E2], the IC50 at full length human TREX1 was < 1 nM; on full length mouse TREX1, 1 to 10 nM. Moreover, in test [1], the “hTREX1 vs hTREX2 selectivity” value is “C (C = >50 fold selective for hTREX1)”.
The like results for `Cc1ncc(C(c2ccccc2C#N)C(C)c2nc(C(=O)Nc3cnoc3)c(O)c(=O)n2C)nc1C` (single isomer, unassigned) [Example 81 D1E2] were, in that order, < 1 nM, 1 to 10 nM and “C (C = >50 fold selective for hTREX1)”.
For the molecule `Cc1nn(C)c(C)c1C(c1ccccc1C#N)C(C)c1nc(C(=O)Nc2cnoc2)c(O)c(=O)n1C` (single isomer, unassigned) [Example 78 D1E1], the figures for the half-maximal inhibitory concentration (IC50) at full length human TREX1 and on full length mouse TREX1 were < 1 nM and 1 to 10 nM, respectively.
In the case of `CC(c1nc(C(=O)Nc2cnoc2)c(O)c(=O)n1C)C(c1cnn(C)c1)c1cc(F)ccc1C#N` (single isomer, unassigned) [Example 14 D1E2], the concentration for half-maximal inhibition (IC50) at full length human TREX1 was < 1 nM; on full length mouse TREX1 it was 1 to 10 nM. Further, the “hTREX1 vs hTREX2 selectivity” value in test [1] is “C (C = >50 fold selective for hTREX1)”.
